The record followed here is ChEMBL document CHEMBL3232962, “Identification and optimization of novel Hsp90 inhibitors with tetrahydropyrido[4,3-d]pyrimidines core through shape-based screening” (Eur J Med Chem, 2014).

The structures appear in SMILES notation.

The first test concerns HCT-116. Put plainly: cells. Particulars: Homo sapiens, HCT-116, 48 h.
One may read the IC50 as the midpoint of a concentration-inhibition curve. `COc1ccc(OC)c(CN2CCc3nc(N4CCN(c5ncccn5)CC4)ncc3C2)c1` displayed an IC50 of 43.2 µM.

The molecule `COc1ccc(OC)c(C(=O)N2CCc3nc(N4CCN(c5ncccn5)CC4)ncc3C2)c1` gave an IC50 of 34.6 µM.

Molecule `O=C(c1ccc(F)cc1)N1CCc2nc(N3CCN(c4ncccn4)CC3)ncc2C1` showed an IC50 of 67.9 µM.

As to `O=C(c1ccc(Cl)cc1)N1CCc2nc(N3CCN(c4ncccn4)CC3)ncc2C1`, the IC50 came out at 21.7 µM.

On to `COc1ccc(C(=O)N2CCc3nc(N4CCN(c5ncccn5)CC4)ncc3C2)c(OC)c1`, for which half-maximal inhibition (IC50) required 11.5 µM.

Molecule `O=C(c1ccc(O)cc1O)N1CCc2nc(N3CCN(c4ncccn4)CC3)ncc2C1` returned an IC50 of 23.1 µM.

`O=C(c1cc(Cl)c(O)cc1O)N1CCc2nc(N3CCN(c4ncccn4)CC3)ncc2C1` displayed an IC50 of 2.74 µM.

`Nc1ncc2c(n1)CCN(C(=O)c1cc(Cl)c(O)cc1O)C2` came in with an IC50 of 1.21 µM.

`Cc1ncc2c(n1)CCN(C(=O)c1cc(Cl)c(O)cc1O)C2` yielded an IC50 of 2.82 µM.

In the case of `CO[C@H]1/C=C\C=C(/C)C(=O)NC2=CC(=O)C(NCCN(C)C)=C(C[C@@H](C)C[C@H](OC)[C@H](O)[C@@H](C)/C=C(\C)[C@@H]1OC(N)=O)C2=O` [ALVESPIMYCIN], the IC50 was 1.21 µM.

For `CC(C)c1cc(C(=O)N2Cc3ccc(CN4CCN(C)CC4)cc3C2)c(O)cc1O` [ONALESPIB], the IC50 stood at 0.08 µM.

A further test concerns MCF7. Nature of the test: cells. Particulars: Homo sapiens, MCF7, 48 h.
As to `COc1ccc(OC)c(CN2CCc3nc(N4CCN(c5ncccn5)CC4)ncc3C2)c1`, the IC50 was 53.2 µM.

`COc1ccc(OC)c(C(=O)N2CCc3nc(N4CCN(c5ncccn5)CC4)ncc3C2)c1` came in with an IC50 of 43.3 µM.

The molecule `O=C(c1ccc(F)cc1)N1CCc2nc(N3CCN(c4ncccn4)CC3)ncc2C1` returned an IC50 of 46.2 µM.

The molecule `O=C(c1ccc(Cl)cc1)N1CCc2nc(N3CCN(c4ncccn4)CC3)ncc2C1` showed an IC50 of 42.2 µM.

Molecule `COc1ccc(C(=O)N2CCc3nc(N4CCN(c5ncccn5)CC4)ncc3C2)c(OC)c1` displayed an IC50 of 20.2 µM.

Molecule `O=C(c1ccc(O)cc1O)N1CCc2nc(N3CCN(c4ncccn4)CC3)ncc2C1` registered an IC50 of 17.5 µM.

Turning to `O=C(c1cc(Cl)c(O)cc1O)N1CCc2nc(N3CCN(c4ncccn4)CC3)ncc2C1`, the half-inhibitory concentration (IC50) came out at 10.2 µM.

In the case of `Nc1ncc2c(n1)CCN(C(=O)c1cc(Cl)c(O)cc1O)C2`, the IC50 stood at 4.41 µM.

Molecule `Cc1ncc2c(n1)CCN(C(=O)c1cc(Cl)c(O)cc1O)C2` displayed an IC50 of 1.91 µM.

`CO[C@H]1/C=C\C=C(/C)C(=O)NC2=CC(=O)C(NCCN(C)C)=C(C[C@@H](C)C[C@H](OC)[C@H](O)[C@@H](C)/C=C(\C)[C@@H]1OC(N)=O)C2=O` [ALVESPIMYCIN] showed an IC50 of 0.8 µM.

As for `CC(C)c1cc(C(=O)N2Cc3ccc(CN4CCN(C)CC4)cc3C2)c(O)cc1O` [ONALESPIB], inhibition was half-maximal at 0.28 µM (IC50).

Test system in the next test: not listed separately
Put plainly: Antiproliferative activity against human A231 cells after 48 hrs by MTT assay. Particulars: A231, 48 h. It is filed as functional, cell-based. In general terms: Formazan colour is commonly taken as a measure of viable cells.
Turning to `COc1ccc(OC)c(CN2CCc3nc(N4CCN(c5ncccn5)CC4)ncc3C2)c1`, the IC50 is 27.5 µM.

`COc1ccc(OC)c(C(=O)N2CCc3nc(N4CCN(c5ncccn5)CC4)ncc3C2)c1` gave an IC50 of 51.3 µM.

The molecule `O=C(c1ccc(F)cc1)N1CCc2nc(N3CCN(c4ncccn4)CC3)ncc2C1` returned an IC50 of 54.4 µM.

Turning to `O=C(c1ccc(Cl)cc1)N1CCc2nc(N3CCN(c4ncccn4)CC3)ncc2C1`, it took 24.6 µM to reach half-maximal inhibition (IC50).

In the case of `COc1ccc(C(=O)N2CCc3nc(N4CCN(c5ncccn5)CC4)ncc3C2)c(OC)c1`, it took 37.6 µM to reach half-maximal inhibition (IC50).

As to `O=C(c1ccc(O)cc1O)N1CCc2nc(N3CCN(c4ncccn4)CC3)ncc2C1`, 21.3 µM corresponded to half-maximal inhibition (IC50).

Molecule `O=C(c1cc(Cl)c(O)cc1O)N1CCc2nc(N3CCN(c4ncccn4)CC3)ncc2C1` had an IC50 of 6.65 µM.

Consider `Nc1ncc2c(n1)CCN(C(=O)c1cc(Cl)c(O)cc1O)C2`, for which the midpoint of inhibition, the IC50, lay at 5.22 µM.

For the molecule `Cc1ncc2c(n1)CCN(C(=O)c1cc(Cl)c(O)cc1O)C2`, the IC50 was 3.76 µM.

For `CO[C@H]1/C=C\C=C(/C)C(=O)NC2=CC(=O)C(NCCN(C)C)=C(C[C@@H](C)C[C@H](OC)[C@H](O)[C@@H](C)/C=C(\C)[C@@H]1OC(N)=O)C2=O` [ALVESPIMYCIN], the IC50 was 0.17 µM.

In the case of `CC(C)c1cc(C(=O)N2Cc3ccc(CN4CCN(C)CC4)cc3C2)c(O)cc1O` [ONALESPIB], the IC50 is 1.01 µM.

Test system in a further test: not listed separately
Put plainly: cells. Particulars: Homo sapiens, SK-BR-3, 48 h.
Description: Antiproliferative activity against human SKBR3 cells after 48 hrs by MTT assay
Consider `COc1ccc(OC)c(CN2CCc3nc(N4CCN(c5ncccn5)CC4)ncc3C2)c1`, for which the IC50 was 10.7 µM.

In turn, `COc1ccc(OC)c(C(=O)N2CCc3nc(N4CCN(c5ncccn5)CC4)ncc3C2)c1` registered an IC50 of 23.5 µM.

Turning to `O=C(c1ccc(F)cc1)N1CCc2nc(N3CCN(c4ncccn4)CC3)ncc2C1`, the midpoint of inhibition, the IC50, lay at 24.5 µM.

`O=C(c1ccc(Cl)cc1)N1CCc2nc(N3CCN(c4ncccn4)CC3)ncc2C1` came in with an IC50 of 11.2 µM.

For `COc1ccc(C(=O)N2CCc3nc(N4CCN(c5ncccn5)CC4)ncc3C2)c(OC)c1`, the midpoint of inhibition, the IC50, lay at 16 µM.

Molecule `O=C(c1ccc(O)cc1O)N1CCc2nc(N3CCN(c4ncccn4)CC3)ncc2C1` came in with an IC50 of 12.2 µM.

Take `O=C(c1cc(Cl)c(O)cc1O)N1CCc2nc(N3CCN(c4ncccn4)CC3)ncc2C1`: the IC50 was 5.17 µM.

The molecule `Nc1ncc2c(n1)CCN(C(=O)c1cc(Cl)c(O)cc1O)C2` came in with an IC50 of 2.3 µM.

For `Cc1ncc2c(n1)CCN(C(=O)c1cc(Cl)c(O)cc1O)C2`, the IC50 came to 4.32 µM.

As for `CO[C@H]1/C=C\C=C(/C)C(=O)NC2=CC(=O)C(NCCN(C)C)=C(C[C@@H](C)C[C@H](OC)[C@H](O)[C@@H](C)/C=C(\C)[C@@H]1OC(N)=O)C2=O` [ALVESPIMYCIN], the IC50 was found to be 3.11 µM.

`CC(C)c1cc(C(=O)N2Cc3ccc(CN4CCN(C)CC4)cc3C2)c(O)cc1O` [ONALESPIB] displayed an IC50 of 0.14 µM.

The target of the next test is T1, Heat shock protein HSP 90-beta (Homo sapiens, UniProt P08238). Nature of the test: Displacement of FITC-geldanamycin from HSP90 (unknown origin) after 30 mins by fluorescence polarization assay.
T1 sequence (P08238 whole entry): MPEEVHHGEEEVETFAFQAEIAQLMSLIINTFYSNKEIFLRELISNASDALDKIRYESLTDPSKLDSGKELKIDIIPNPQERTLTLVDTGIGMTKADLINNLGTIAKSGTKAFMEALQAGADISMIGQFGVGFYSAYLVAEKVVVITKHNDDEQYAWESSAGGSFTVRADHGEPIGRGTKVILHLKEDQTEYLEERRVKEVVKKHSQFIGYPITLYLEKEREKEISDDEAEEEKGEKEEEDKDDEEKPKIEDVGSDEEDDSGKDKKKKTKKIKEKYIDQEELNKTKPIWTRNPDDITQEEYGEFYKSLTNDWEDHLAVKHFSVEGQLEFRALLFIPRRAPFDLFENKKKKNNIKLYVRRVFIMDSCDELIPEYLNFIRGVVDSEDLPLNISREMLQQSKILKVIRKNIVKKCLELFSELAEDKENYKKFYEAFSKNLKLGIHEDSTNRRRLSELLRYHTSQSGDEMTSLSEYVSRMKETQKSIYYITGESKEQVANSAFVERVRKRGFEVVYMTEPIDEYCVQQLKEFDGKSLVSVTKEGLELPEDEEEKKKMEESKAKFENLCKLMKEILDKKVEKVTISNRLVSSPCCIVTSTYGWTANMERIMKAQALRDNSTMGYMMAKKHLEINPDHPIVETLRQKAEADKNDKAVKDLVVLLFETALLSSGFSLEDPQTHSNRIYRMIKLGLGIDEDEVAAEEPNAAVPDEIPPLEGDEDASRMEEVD
Details: not given
(Fluorescence polarisation rises when a labelled molecule tumbles more slowly, as on binding a larger partner.)
`Fc1ccc(CN2CCc3nc(N4CCN(c5ncccn5)CC4)ncc3C2)cc1`: the IC50 was more than 100 µM.

Consider `Clc1ccc(CN2CCc3nc(N4CCN(c5ncccn5)CC4)ncc3C2)cc1`, for which the IC50 was more than 100 µM.

Consider `CN(C)c1ccc(CN2CCc3nc(N4CCN(c5ncccn5)CC4)ncc3C2)cc1`, for which the IC50 was more than 100 µM.

As to `COc1ccc(OC)c(CN2CCc3nc(N4CCN(c5ncccn5)CC4)ncc3C2)c1`, the IC50 turned out to be 45.4 µM.

`COc1ccc(OC)c(C(=O)N2CCc3nc(N4CCN(c5ncccn5)CC4)ncc3C2)c1` came in with a half-maximal inhibitory concentration (IC50) of 40.4 µM.

`O=C(c1ccc(F)cc1)N1CCc2nc(N3CCN(c4ncccn4)CC3)ncc2C1`: the IC50 was more than 100 µM.

As to `O=C(c1ccc(Cl)cc1)N1CCc2nc(N3CCN(c4ncccn4)CC3)ncc2C1`, the IC50 is more than 100 µM.

Regarding `COc1ccc(C(=O)N2CCc3nc(N4CCN(c5ncccn5)CC4)ncc3C2)c(OC)c1`, the IC50 was 30.5 µM.

On to `O=C(c1ccc(O)cc1O)N1CCc2nc(N3CCN(c4ncccn4)CC3)ncc2C1`, for which the IC50 worked out at 10.2 µM.

In turn, `O=C(c1cc(Cl)c(O)cc1O)N1CCc2nc(N3CCN(c4ncccn4)CC3)ncc2C1` had an IC50 of 1.67 µM.

In turn, `Nc1ncc2c(n1)CCN(C(=O)c1cc(Cl)c(O)cc1O)C2` had an IC50 of 0.31 µM.

`Cc1ncc2c(n1)CCN(C(=O)c1cc(Cl)c(O)cc1O)C2` yielded an IC50 of 0.1 µM.

Consider `CC(C)c1cc(C(=O)N2Cc3ccc(CN4CCN(C)CC4)cc3C2)c(O)cc1O` [ONALESPIB], for which the IC50 amounted to 0.03 µM.

The target of a further test is T1, Heat shock protein HSP 90-beta. Put plainly: Inhibition of full-length HSP90 (unknown origin) expressed in Escherichia coli assessed as inhibition of ATPase activity after 3 hrs by spectrophotometric analysis.
Details: not given
In the case of `CN1CCN(c2ncc3c(n2)CCN(Cc2ccc(Br)s2)C3)CC1`, the IC50 was 63.2 µM.

For `CCN1CCN(c2ncc3c(n2)CCN(Cc2ccc(Br)s2)C3)CC1`, the IC50 was determined as 74.7 µM.

Regarding `COc1cc(OC)c(OC)cc1CN1CCc2nc(N3CCOCC3)ncc2C1`, the IC50 stood at 50.9 µM.

On to `c1cc2c(cc1CN1CCc3nc(Nc4ccc5c(c4)OCCO5)ncc3C1)OCCO2`, for which the IC50 was more than 100 µM.

As for `Fc1ccc(CN2CCc3nc(N4CCN(c5ncccn5)CC4)ncc3C2)cc1`, the IC50 worked out at 40.2 µM.

As to `Clc1ccc(CN2CCc3nc(N4CCN(c5ncccn5)CC4)ncc3C2)cc1`, the IC50 stood at 47.9 µM.

On to `COc1cc(CN2CCc3nc(N4CCOCC4)ncc3C2)cc(OC)c1OC`, for which the half-maximal inhibitory concentration (IC50) was determined as 55.1 µM.

`CN(C)c1ccc(CN2CCc3nc(N4CCN(c5ncccn5)CC4)ncc3C2)cc1`: the IC50 amounted to 46.1 µM.

In the case of `CCCN1CCN(c2ncc3c(n2)CCN(Cc2cc(Br)cs2)C3)CC1`, the IC50 came to 59.3 µM.

For the molecule `COc1ccc(OC)c(CN2CCc3nc(N4CCN(c5ncccn5)CC4)ncc3C2)c1`, the IC50 is 35.2 µM.

In the case of `CC1CCN(c2ncc3c(n2)CCN(Cc2ccc(Br)s2)C3)CC1`, the IC50 turned out to be 88 µM.

Take `COc1ccc(OC)c(C(=O)N2CCc3nc(N4CCN(c5ncccn5)CC4)ncc3C2)c1`: the IC50 amounted to 16.4 µM.

Take `O=C(c1ccc(F)cc1)N1CCc2nc(N3CCN(c4ncccn4)CC3)ncc2C1`: the IC50 stood at 27.2 µM.

`O=C(c1ccc(Cl)cc1)N1CCc2nc(N3CCN(c4ncccn4)CC3)ncc2C1`: the IC50 is 24.5 µM.

Turning to `COc1ccc(C(=O)N2CCc3nc(N4CCN(c5ncccn5)CC4)ncc3C2)c(OC)c1`, the IC50 came to 7.88 µM.

As to `O=C(c1ccc(O)cc1O)N1CCc2nc(N3CCN(c4ncccn4)CC3)ncc2C1`, the IC50 worked out at 3.23 µM.

Turning to `O=C(c1cc(Cl)c(O)cc1O)N1CCc2nc(N3CCN(c4ncccn4)CC3)ncc2C1`, the IC50 came out at 0.93 µM.

In the case of `Nc1ncc2c(n1)CCN(C(=O)c1cc(Cl)c(O)cc1O)C2`, the IC50 was 0.51 µM.

As for `Cc1ncc2c(n1)CCN(C(=O)c1cc(Cl)c(O)cc1O)C2`, the IC50 is 0.42 µM.

Take `CC(C)c1cc(C(=O)N2Cc3ccc(CN4CCN(C)CC4)cc3C2)c(O)cc1O` [ONALESPIB]: the IC50 was 0.35 µM.
